Measurements: patent US10695337B2, “Piperidin-4-yl azetidine derivatives as JAK1 inhibitors” (Incyte Corporation, priority 2010, dated 2020)

target: human JAK1 (a.a. 837-1142); experiment: In vitro JAK kinase assay (HTRF, phosphorylation of a biotinylated peptide), JAK1; assay type: biochemical; settings: measured at 1 mM ATP; JAK2 IC50 / JAK1 IC50
How it was run: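 N-terminally His-tagged catalytic domains, baculovirus-expressed in insect cells and purified, were used as enzyme. Reactions ran 1 hr at room temperature and were stopped with a mix of 45 mM EDTA, 300 nM SA-APC and 6 nM Eu-Py20. The HTRF signal was read after 40 min of antibody binding.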

Going from `COc1ccccc1NC(=O)N1CCC(N2CC(CC#N)(n3ccc(-c4ncnc5[nH]ccc45)c3)C2)CC1` [Example 288, 4-{3-(cyanomethyl)-3-[3-(7H-pyrrolo[2,3-d]pyrimidin-4-yl)-1H-pyrrol-1-yl]azetidin-1-yl}-N-(2-methoxyphenyl)piperidine-1-carboxamide] to `N#CCC1(n2ccc(-c3ncnc4[nH]ccc34)c2)CN(C2CCN(C(=O)Nc3ncccc3F)CC2)C1` [Example 292, 4-{3-(cyanomethyl)-3-[3-(7H-pyrrolo[2,3-d]pyrimidin-4-yl)-1H-pyrrol-1-yl]azetidin-1-yl}-N-(3-fluoropyridin-2-yl)piperidine-1-carboxamide], the “IC50 Ratio JAK2/JAK1” value rises from 9.0 to 9.1.

Going from `N#CCC1(n2ccc(-c3ncnc4[nH]ccc34)c2)CN(C2CCN(C(=O)Nc3ncccc3C(F)(F)F)CC2)C1` [Example 290, 4-{3-(cyanomethyl)-3-[3-(7H-pyrrolo[2,3-d]pyrimidin-4-yl)-1H-pyrrol-1-yl]azetidin-1-yl}-N-[3-(trifluoromethyl)pyridin-2-yl]piperidine-1-carboxamide] to `N#CCC1(n2ccc(-c3ncnc4[nH]ccc34)c2)CN(C2CCN(C(=O)Nc3ccc(Cl)cc3C#N)CC2)C1` [Example 293, 4-{3-(cyanomethyl)-3-[3-(7H-pyrrolo[2,3-d]pyrimidin-4-yl)-1H-pyrrol-1-yl]azetidin-1-yl}-N-(4-chloro-2-cyanophenyl)piperidine-1-carboxamide], the “IC50 Ratio JAK2/JAK1” value falls from 3.9 to 3.4.

Compared with `N#CCC1(n2cc(-c3ccnc4[nH]ccc34)cn2)CN(C2CCN(C(=O)c3ccc(C#N)cc3F)CC2)C1` [Example 295, 4-[(4-{3-(cyanomethyl)-3-[4-(1H-pyrrolo[2,3-b]pyridin-4-yl)-1H-pyrazol-1-yl]azetidin-1-yl}piperidin-1-yl)cabonyl]-3-fluorobenzonitrile], `N#CCC1(n2cc(-c3ccnc4[nH]ccc34)cn2)CN(C2CCN(C(=O)c3ccc(O)cc3F)CC2)C1` [Example 297, {1-[1-(2-fluoro-4-hydroxybenzoyl)piperidin-4-yl]-3-[4-(1H-pyrrolo[2,3-b]pyridin-4-yl)-1H-pyrazol-1-yl]azetidin-3-yl}acetonitrile] is higher in “IC50 Ratio JAK2/JAK1” value: 5.1 for the first, 10.0 for the second.

Compared with `N#CCC1(n2cc(-c3ccnc4[nH]ccc34)cn2)CN(C2CCN(C(=O)c3ccc(O)c(F)c3)CC2)C1` [Example 296], `N#CCC1(n2cc(-c3c(F)cnc4[nH]ccc34)cn2)CN(C2CCN(C(=O)c3ccc(O)c(F)c3)CC2)C1` [Example 322, {1-[1-(3-fluoro-4-hydroxybenzoyl)piperidin-4-yl]-3-[4-(5-fluoro-1H-pyrrolo[2,3-b]pyridin-4-yl)-1H-pyrazol-1-yl]azetidin-3-yl}acetonitrile] is higher in “IC50 Ratio JAK2/JAK1” value: 4.6 for the first, 4.7 for the second.

First: N#CCC1(n2cc(-c3ccnc4[nH]ccc34)cn2)CN(C2CCN(C(=O)c3cc(C(F)(F)F)ncc3Cl)CC2)C1 [Example 298, {1-{1-[5-chloro-2-(trifluoromethyl)isonicotinoyl]piperidin-4-yl}-3-[4-(1H-pyrrolo[2,3-b]pyridin-4-yl)-1H-pyrazol-1-yl]azetidin-3-yl}acetonitrile]
Second: N#CCC1(n2cc(-c3c(F)cnc4[nH]ccc34)cn2)CN(C2CCN(C(=O)c3cc(C(F)(F)F)ncc3Cl)CC2)C1 [Example 326, {1-{1-[5-chloro-2-(trifluoromethyl)isonicotinoyl]piperidin-4-yl}-3-[4-(5-fluoro-1H-pyrrolo[2,3-b]pyridin-4-yl)-1H-pyrazol-1-yl]azetidin-3-yl}acetonitrile]
The “IC50 Ratio JAK2/JAK1” value of the first is higher: 2.8 for the first, 1.7 for the second.

First: N#CCC1(n2cc(-c3ccnc4[nH]ccc34)cn2)CN(C2CCN(C(=O)c3ccnc(C(F)(F)F)n3)CC2)C1 [Example 299, [3-[4-(1H-pyrrolo[2,3-b]pyridin-4-yl)-1H-pyrazol-1-yl]-1-(1-{[2-(trifluoromethyl)pyrimidin-4-yl]carbonyl}piperidin-4-yl)azetidin-3-yl]acetonitrile]
Second: N#CCC1(n2cc(-c3ccnc4[nH]ccc34)cn2)CN(C2CCN(C(=O)c3cnc(C(F)(F)F)cn3)CC2)C1 [Example 301, [3-[4-(1H-pyrrolo[2,3-b]pyridin-4-yl)-1H-pyrazol-1-yl]-1-(1-{[5-(trifluoromethyl)pyrazin-2-yl]carbonyl}piperidin-4-yl)azetidin-3-yl]acetonitrile]
The “IC50 Ratio JAK2/JAK1” value of the first is higher: 6.6 for the first, 3.3 for the second.

First: N#CCC1(n2cc(-c3ccnc4[nH]ccc34)cn2)CN(C2CCN(C(=O)C3CCC(F)(F)CC3)CC2)C1 [Example 302, {1-{1-[(4,4-difluorocyclohexyl)carbonyl]piperidin-4-yl}-3-[4-(1H-pyrrolo[2,3-b]pyridin-4-yl)-1H-pyrazol-1-yl]azetidin-3-yl}acetonitrile]
Second: N#CCC1(n2cc(-c3ccnc4[nH]ccc34)cn2)CN(C2CCN(C(=O)Nc3ccccc3F)CC2)C1 [Example 309, 4-{3-(cyanomethyl)-3-[4-(1H-pyrrolo[2,3-b]pyridin-4-yl)-1H-pyrazol-1-yl]azetidin-1-yl}-N-(2-fluorophenyl)piperidine-1-carboxamide]
The “IC50 Ratio JAK2/JAK1” value of the first is higher: 6.5 for the first, 5.3 for the second.

Going from `N#CCC1(n2cc(-c3ccnc4[nH]ccc34)cn2)CN(C2CCN(C(=O)Nc3ccc(F)cc3Cl)CC2)C1` [Example 305, N-(2-chloro-4-fluorophenyl)-4-{3-(cyanomethyl)-3-[4-(1H-pyrrolo[2,3-b]pyridin-4-yl)-1H-pyrazol-1-yl]azetidin-1-yl}piperidine-1-carboxamide] to `N#CCC1(n2cc(-c3ccnc4[nH]ccc34)cn2)CN(C2CCN(C(=O)Nc3ccccc3Cl)CC2)C1` [Example 310, N-(2-chlorophenyl)-4-{3-(cyanomethyl)-3-[4-(1H-pyrrolo[2,3-b]pyridin-4-yl)-1H-pyrazol-1-yl]azetidin-1-yl}piperidine-1-carboxamide], the “IC50 Ratio JAK2/JAK1” value falls from 16.0 to 9.0.

Compared with `COc1ncccc1NC(=O)N1CCC(N2CC(CC#N)(n3cc(-c4ccnc5[nH]ccc45)cn3)C2)CC1` [Example 306, 4-{3-(cyanomethyl)-3-[4-(1H-pyrrolo[2,3-b]pyridin-4-yl)-1H-pyrazol-1-yl]azetidin-1-yl}-N-(2-methoxypyridin-3-yl)piperidine-1-carboxamide], `N#CCC1(n2cc(-c3ccnc4[nH]ccc34)cn2)CN(C2CCN(C(=O)Nc3ccncc3C(F)(F)F)CC2)C1` [Example 307, 4-{3-(cyanomethyl)-3-[4-(1H-pyrrolo[2,3-b]pyridin-4-yl)-1H-pyrazol-1-yl]azetidin-1-yl}-N-[3-(trifluoromethyl)pyridin-4-yl]piperidine-1-carboxamide] is higher in “IC50 Ratio JAK2/JAK1” value: 3.5 for the first, 8.8 for the second.

Going from `N#CCC1(n2cc(-c3ccnc4[nH]ccc34)cn2)CN(C2CCN(C(=O)Nc3ccc(C#N)cc3F)CC2)C1` [Example 312, N-(4-cyano-2-fluorophenyl)-4-{3-(cyanomethyl)-3-[4-(1H-pyrrolo[2,3-b]pyridin-4-yl)-1H-pyrazol-1-yl]azetidin-1-yl}piperidine-1-carboxamide] to `N#CCC1(n2cc(-c3c(F)cnc4[nH]ccc34)cn2)CN(C2CCN(C(=O)c3ccc(C#N)cc3F)CC2)C1` [Example 317, 4-[(4-{3-(cyanomethyl)-3-[4-(5-fluoro-1H-pyrrolo[2,3-b]pyridin-4-yl)-1H-pyrazol-1-yl]azetidin-1-yl}piperidin-1-yl)carbonyl]-3-fluorobenzonitrile], the “IC50 Ratio JAK2/JAK1” value falls from 5.3 to 4.5.

Going from `N#CCC1(n2cc(-c3c(F)cnc4[nH]ccc34)cn2)CN(C2CCN(C(=O)c3ccnc(C(F)(F)F)c3F)CC2)C1` [Example 314, (3-[4-(5-Fluoro-1H-pyrrolo[2,3-b]pyridin-4-yl)-1H-pyrazol-1-yl]-1-{1-[3-fluoro-2-(trifluoromethyl)isonicotinoyl]piperidin-4-yl}azetidin-3-yl)acetonitrile] to `N#CCC1(n2cc(-c3c(F)cnc4[nH]ccc34)cn2)CN(C2CCN(C(=O)c3ccncc3F)CC2)C1` [Example 320, {1-[1-(3-fluoroisonicotinoyl)piperidin-4-yl]-3-[4-(5-fluoro-1H-pyrrolo[2,3-b]pyridin-4-yl)-1H-pyrazol-1-yl]azetidin-3-yl}acetonitrile], the “IC50 Ratio JAK2/JAK1” value falls from 11.0 to 2.8.

Compared with `N#CCC1(n2cc(-c3c(F)cnc4[nH]ccc34)cn2)CN(C2CCN(C(=O)c3cc(F)cc(C#N)c3)CC2)C1` [Example 316, 3-[(4-{3-(cyanomethyl)-3-[4-(5-fluoro-1H-pyrrolo[2,3-b]pyridin-4-yl)-1H-pyrazol-1-yl]azetidin-1-yl}piperidin-1-yl)carbonyl]-5-fluorobenzonitrile], `N#CCC1(n2cc(-c3c(F)cnc4[nH]ccc34)cn2)CN(C2CCN(C(=O)c3ccc(F)c(C#N)c3)CC2)C1` [Example 318, 5-[(4-{3-(cyanomethyl)-3-[4-(5-fluoro-1H-pyrrolo[2,3-b]pyridin-4-yl)-1H-pyrazol-1-yl]azetidin-1-yl}piperidin-1-yl)carbonyl]-2-fluorobenzonitrile] is lower in “IC50 Ratio JAK2/JAK1” value: 9.5 for the first, 4.7 for the second.

Compared with `N#CCC1(n2cc(-c3c(F)cnc4[nH]ccc34)cn2)CN(C2CCN(C(=O)c3ccc(F)cn3)CC2)C1` [Example 319], `N#CCC1(n2cc(-c3c(F)cnc4[nH]ccc34)cn2)CN(C2CCN(C(=O)c3ccc(O)cc3F)CC2)C1` [Example 323, {1-[1-(2-fluoro-4-hydroxybenzoyl)piperidin-4-yl]-3-[4-(5-fluoro-1H-pyrrolo[2,3-b]pyridin-4-yl)-1H-pyrazol-1-yl]azetidin-3-yl}acetonitrile] is higher in “IC50 Ratio JAK2/JAK1” value: 4.0 for the first, 5.0 for the second.

With `N#CCC1(n2cc(-c3c(F)cnc4[nH]ccc34)cn2)CN(C2CCN(C(=O)c3c(F)cncc3F)CC2)C1` [Example 321, {1-[1-(3,5-difluoroisonicotinoyl)piperidin-4-yl]-3-[4-(5-fluoro-1H-pyrrolo[2,3-b]pyridin-4-yl)-1H-pyrazol-1-yl]azetidin-3-yl}acetonitrile] the “IC50 Ratio JAK2/JAK1” value was 3.0.
